Assay results as given in US8658668B2, “PI3 kinase/mTOR dual inhibitor” (Eli Lilly and Company, priority 2011, dated 2014).

What was measured:
[1] = test system: PRXF PC3M human tumor xenograft cells; test: Oncotest tumor clonogenic assay, PRXF PC3M; assay type: cell-based; conditions: PC-3M, colony formation, Prostate PRXF PC3M, adeno carcinoma, metastatic, pd, read-out: Absolute IC50
A204 = test: Cell proliferation assay (CellTiter-Glo), A204; assay type: cell-based; conditions: Homo sapiens, A204, 72 h
Method: (§1) Plate cells in a 96-well plate at 2000 cells/well in 100 μL of cell specific medium (for U87MG use DMEM, 10% FBS, 25 mM 4-(2-hydroxyethyl)-1-piperazineethanesulfonic acid (HEPES), 1.0 mM sodium pyruvate, and 0.1 mM Non Essential Amino Acids (ATCC Cat.#30-2002); for HT1080 use Eagle's MEM, 10% FBS (ATCC Cat.#30-2003); for H1975, A2780, SJSA-1 and 786-O use RPMI 1640, 10% FBS (ATCC Cat.#30-2001); for A204 use McCoy's 5A, 10% FBS (ATCC Cat.#30-2007) except in column 1 use medium only as the blank control. Incubate the plates overnight at 37° C. and 5% CO2. On the next day, prepare compound stocks at 1 mM in DMSO and serially dilute in DMSO in a 96-well round bottom polypropylene plate. Assay compounds at 10 concentrations in duplicate, 4 compounds per plate.
(§2) Transfer 4 μL of the DMSO serial dilutions to a 96 well plate and add 196 μL of culture medium to create a 10× stock for dosing. Gently transfer 11 μL of each dosing stock to the corresponding well of the cell plate resulting in a 0.2% DMSO concentration and a 111 μL final volume. […]
(§3) Prepared the CellTiter-Glo reagent (Promega, Cat: G7571) and add 100 µL to each well after the incubation is complete, homogenize the cells by mixing on an orbital shaker for 2 min and then incubate at RT for 10 min to allow the luminescent signal to stabilize. Record the luminescent raw data with a Wallac Victor V plate reader. […]

[2] = test system: PRXF DU145 human tumor xenograft cells; test: Oncotest tumor clonogenic assay, PRXF DU145; assay type: cell-based; conditions: DU-145, colony formation, Prostate PRXF DU145, adeno carcinoma, ud, read-out: Absolute IC50
[3] = test system: MEXF 989 human tumor xenograft cells; test: Oncotest tumor clonogenic assay, MEXF 989; assay type: cell-based; conditions: colony formation, Melanoma MEXF 989, amelanotic melanoma, md, read-out: Absolute IC50
pT389 p70S6K = test: In vivo target inhibition in U87MG tumors, pT389 p70S6K; conditions: Mus musculus, U-87 MG; for inhibition at 0.5 mg/kg: 0.5 mg/kg oral; for inhibition at 1.5 mg/kg: 1.5 mg/kg oral; for inhibition at 3 mg/kg: 3 mg/kg oral; for inhibition at 6 mg/kg: 6 mg/kg oral; for inhibition at 10 mg/kg: 10 mg/kg oral; for inhibition at 12 mg/kg: 12 mg/kg oral
Method: Implant U87MG human glioblastoma cells (5×10^6) subcutaneously into the flank of athymic nude mice in 0.2 mL of matrigel. Ten days post-implantation, dose mice orally according to a time course, single dose/single time point, or dose response protocol for the determination of TMED50 (threshold minimum effective dose). Flash freeze tumors at harvest and collect blood for the determination of parent compound plasma exposure and the calculation of TMEC50 (threshold minimum effective concentration) in the case of dose response studies. Homogenize tumors in 500 μL of XY Lysis Buffer (10 μg/mL Leupeptin, 10 μg/mL Trypsin-Chymotrypsin Inhibitor, 10 μg/mL Tosyl phenyl-alanyl chloromethyl ketone, 10 μg/mL Aprotinin, 60 mM Beta-Glycerol Phosphate, 1% Triton X100, 25 mM Tris pH 7.5, 2.5 mM Pyrophosphate, 150 mM NaCl, 2 mM p-tosyl-L-arginine methyl ester, 15 mM para-nitrophenyl phosphate, 5 mM benzamidine, 1 mM sodium vanadate, 10 mM sodium fluoride, 50 μg/mL phenyl-methane sulfonyl fluoride, 1 mM 1,4-dithiothreitol (DTT), 15 mM EDTA pH 8.0, 5 mM EGTA pH 8.0, 1 μM Microcystin, 1 μM Okadaic Acid, and 1 Roche Complete protease inhibitor mini-tablet per 10 mL) using RNase Free Pellet Pestle (Kimble-Kontes). Aliquot lysates and either assay immediately or store at −80° C. for later testing. Use the multiplex format of Meso Scale Discovery (Gaithersburg, Md.) ELISA technology and measure in vivo target inhibition of PI3K and mTOR to assess effects on phosphorylation of the threonine 308 site of AKT, a downstream effector of PI3K; phosphorylation on the threonine 389 site of p70 S6K and on the serine 240/244 site of S6RP, downstream effectors of mTORC1; phosphorylation of the serine 473 site of AKT, a downstream effector of mTORC2. Add 20 μg of lysate to carbon electrode containing 96-well plates pre-spotted with the appropriate capture antibodies. Probe the protein of interest using a ruthenium labeled detection antibody. Pass current over the electrode in the presence of read buffer containing the co-reactant TPA, and quantitate and record the light generated by electro-chemiluminescence with the MSD Sector 6000 instrument. Calculate percent inhibitions relative to the vehicle control group and perform ANOVA analysis using the JMP software package for the determination of statistical significance.

[4] = test system: LXFL 1072 human tumor xenograft cells; test: Oncotest tumor clonogenic assay, LXFL 1072; assay type: cell-based; conditions: colony formation, NSCLC LXFL 1072, large cell lung carcinoma, pd, read-out: Absolute IC50
[5] = test system: MAXF 1322 human tumor xenograft cells; test: Oncotest tumor clonogenic assay, MAXF 1322; assay type: cell-based; conditions: colony formation, Mammary MAXF 1322, pap. adeno carcinoma, pd, read-out: Absolute IC50
U87MG = test: Cell proliferation assay (CellTiter-Glo), U87MG; assay type: cell-based; conditions: Homo sapiens, U-87 MG, 96 h
Method: as §1, §2, §3

[6] = test system: PAXF 736 human tumor xenograft cells; test: Oncotest tumor clonogenic assay, PAXF 736; assay type: cell-based; conditions: PAXF736, colony formation, Pancreas PAXF 736, adeno carcinoma, pd, read-out: Absolute IC50

Question: For `CO[C@@H](C)Cn1c(=O)n(C)c2cnc3ccc(-c4cncc(C(C)(C)O)c4)cc3c21` [Example 1, 8-[5-(1-Hydroxy-1-methylethyl)pyridin-3-yl]-1-[(2S)-2-methoxypropyl]-3-methyl-1,3-dihydro-2H-imidazo[4,5-c]quinolin-2-one], which IC50 [1] is on record?
Answer: 0.208 µM

Question: What about the IC50 (A204) of the same compound?
Answer: 0.097 µM

Question: And the IC50 [2]?
Answer: 0.269 µM

Question: And the IC50 [3]?
Answer: 0.185 µM

Question: What about the inhibition at 0.5 mg/kg (pT389 p70S6K; 0.5 hr post dose) of the same compound?
Answer: 62%

Question: What about the inhibition at 0.5 mg/kg (pT389 p70S6K; 4 hr post dose) of the same compound?
Answer: 7%

Question: What about the inhibition at 1.5 mg/kg (pT389 p70S6K; 0.5 hr post dose) of the same compound?
Answer: 84%

Question: And the inhibition at 1.5 mg/kg (pT389 p70S6K; 4 hr post dose)?
Answer: 38%

Question: What about the inhibition at 3 mg/kg (pT389 p70S6K; 0.25 hr post dose) of the same compound?
Answer: 77%

Question: What about the inhibition at 3 mg/kg (pT389 p70S6K; 0.5 hr post dose) of the same compound?
Answer: 89%

Question: And the inhibition at 3 mg/kg (pT389 p70S6K; 1 hr post dose)?
Answer: 89%

Question: And the inhibition at 3 mg/kg (pT389 p70S6K; 3 hr post dose)?
Answer: 77%

Question: And the inhibition at 3 mg/kg (pT389 p70S6K; 4 hr post dose)?
Answer: 64%

Question: What about the inhibition at 6 mg/kg (pT389 p70S6K; 0.25 hr post dose) of the same compound?
Answer: 88%

Question: And the inhibition at 6 mg/kg (pT389 p70S6K; 0.5 hr post dose)?
Answer: 91%

Question: And the inhibition at 6 mg/kg (pT389 p70S6K; 1 hr post dose)?
Answer: 90%

Question: And the inhibition at 6 mg/kg (pT389 p70S6K; 2 hr post dose)?
Answer: 87%

Question: And the inhibition at 6 mg/kg (pT389 p70S6K; 4 hr post dose)?
Answer: 68%

Question: What about the inhibition at 6 mg/kg (pT389 p70S6K; 6 hr post dose) of the same compound?
Answer: 61%

Question: And the inhibition at 6 mg/kg (pT389 p70S6K; 12 hr post dose)?
Answer: 14%

Question: And the inhibition at 10 mg/kg (pT389 p70S6K; 0.5 hr post dose)?
Answer: 93%

Question: What about the inhibition at 10 mg/kg (pT389 p70S6K; 1 hr post dose) of the same compound?
Answer: 92%

Question: And the inhibition at 10 mg/kg (pT389 p70S6K; 2 hr post dose)?
Answer: 92%

Question: What about the inhibition at 10 mg/kg (pT389 p70S6K; 4 hr post dose) of the same compound?
Answer: 91%

Question: What about the inhibition at 10 mg/kg (pT389 p70S6K; 8 hr post dose) of the same compound?
Answer: 55%

Question: What about the inhibition at 12 mg/kg (pT389 p70S6K; 0.5 hr post dose) of the same compound?
Answer: 92%

Question: And the inhibition at 12 mg/kg (pT389 p70S6K; 4 hr post dose)?
Answer: 90%

Question: What about the IC50 [4] of the same compound?
Answer: 0.214 µM

Question: And the IC50 [5]?
Answer: 0.003 µM

Question: And the IC50 (U87MG)?
Answer: 0.074 µM

Question: And the IC50 [6]?
Answer: 0.174 µM
